# Measured values from US20060211690A1, “Microglia inhibitors for interrupting interleukin 12 and IFNgamma-mediated immune reactions” (Schering Aktiengesellschaft, priority 2002, published 2006).
# Assays:
# interleukin 12 = assay: Inhibition of the IL 12 production in LPS-stimulated THP-1 cells; assay type: cell-based; settings: Homo sapiens, 0.1 μg/ml LPS overnight, read-out: Inhibition of the IL 12 Secretion (IC50)
# Experimental: (§1) The inhibition of the cytokine production can be visualized, for example, by measuring TNFα and interleukin 12 in lipopolysaccharide (LPS)-stimulated THP-1 cells.
# (§2) For this purpose, 2.5×10^5 THP-1 cells (American Type Culture Company, Rockville, Md.)/ml of RPMI 1640 medium (Life Technologies)/10% FCS (Life Technologies, Cat. No. 10270-106) are grown on 96-hole flat-bottomed cell culture plates (TPP, Product No.9296) (100 μl/hole). The compounds according to the invention are added at various concentrations and pre-incubated for 30 minutes. The pre-dilution of the test substances was performed in the incubation medium. The addition of the test substances is carried out as a 2× concentrated substance solution (100 μl/hole). The stimulation of the cells was carried out overnight at 37° C with 0.1 μg/ml of LPS (Sigma L2630, of E. Coli Serotype 011 1.B4). Then, the medium was harvested, and the amount of TNFα or the amount of interleukin 12 was quantitatively determined. To measure the TNFα, a commercially available TNFα kit of the CIS Bio International Company was used (Product No. 62TNFPEB). The amount of interleukin 12 was implemented with the aid of the ORIGEN technology (IGEN International, Inc., Gaithersburg, Md.). The calculated IC50 value corresponds to the concentration of test substance that is required to reach a 50% inhibition of the maximum TNFα or interleukin 12 production. […]
# TNFα [1] = assay: Inhibition of the TNFα production in LPS-stimulated THP-1 cells; assay type: cell-based; settings: Homo sapiens, 0.1 μg/ml LPS overnight, read-out: Inhibition of the TNFα Secretion (IC50)
# Experimental: as §1, §2
# IFNγ = assay: Inhibition of the IFNγ production of peripheral mononuclear blood cells (phytohemagglutinin-stimulated); assay type: cell-based; settings: human peripheral mononuclear blood cells, 5 μg/mL phytohemagglutinin, 48 hours; read-out: Inhibition of the IFNγ Secretion (IC50)
# Experimental: To visualize the effect of the substances on T-cell activation, for example, the measurement of the IFNγ-secretion can be used.
# To isolate peripheral mononuclear cells, human whole blood was used (drawing of blood via Na-citrate S-monovettes “Coagulation 9 NC/10 ml”/Sarstedt). The build-up of the blood cells was accomplished with the aid of density gradient centrifuging: For this purpose, 15 ml of Histopaque 1077 (Sigma, Cat. No. H8880) in LEUCOSEP tubes (Greiner, Cat. No. 227290) is introduced and centrifuged for 30 seconds at 1000 g. Then, 15 ml of whole blood is added and centrifuged for 10 minutes at 1000 g. Finally, the upper plasma layer is pipetted off and the subjacent cell layer (peripheral mononuclear blood cells) is transferred in 15 ml sample tubes (Falcon) and then […] several times with 10 ml of HBSS (HANKS Balanced Solution (without Mg2+ and Ca2+), Cat. No. 14175-53). […]
# Then the medium was harvested, and the amount of IFNγ was determined quantitatively. The amount of IFNγ was determined with the aid of the ORIGEN technology (IGEN International, Inc., Gaithersburg, Md.). […]
# microglia = assay: Inhibition of the microglia activation; assay type: cell-based
# Text: Compounds that with stimulation with the Aβ-peptide achieve an inhibition of the microglia activity of at least 20% and an inhibition of the cytokine activity of at least 30% are suitable, according to the invention, as microglia inhibitors. The biological properties of the microglia inhibitors can be shown according to the methods that are known to one skilled in the art, for example with the aid of the testing methods that are described below and in WO 01/51473.
# IL-12 HD p70 = assay: Inhibition of IL-12 HD p70 production of peripheral mononuclear blood cells stimulated with LPS and IFNγ; assay type: cell-based, human; settings: 24 hours; for IC50: Homo sapiens, read-out: Inhibition of IL-12HD Secretion after LPS & IFNg Stimulation IC50
# Experimental: (§3) The inhibition of the TNFα and IL-12 HD p70 production is visualized by, for example, measuring TNFα and IL-12 HD p70 in peripheral mononuclear blood cells that are stimulated with lipopolysaccharide (LPS) and interferon gamma (IFNγ).
# (§4) To isolate peripheral mononuclear blood cells, human whole blood was used (drawing of blood via Na-Citrate S-monovettes “Coagulation 9 NC/10 ml”/Sarstedt). The build-up of the lymphocytes and monocytes was accomplished with the aid of the density gradient centrifuging: For this purpose, 15 ml of Histopaque-1077 (Sigma, Cat. No. H8880) is introduced into 50 ml LEUCOSEP tubes (Greiner, Cat. No. 227290) and forced downward by centrifuging for 30 seconds at 250 g by the frits that are contained in the tubes. Then, 20 ml of whole blood is added and centrifuged for 15 minutes at 800 g and at room temperature. After centrifuging, the supernatant (plasma and thrombocytes) is pipetted off and discarded, and the subjacent cell layer (lymphocytes and monocytes) is transferred into 50 ml centrifuging tubes (Falcon) and then washed 3× in culture medium VLE RPMI 1640 (Seromed, No. FG1415) (centrifuging in each case for 10 minutes at 250 g, room temperature). Finally, the cell pellet is resuspended in culture medium VLE RPMI 1640 (Seromed, No. FG1415), 10% FCS (Life Technologies, Cat. No. 16000-044, low endotoxin, heat-inactivated for 1 hour, 56° C.), and 50 μg/ml of penicillin-streptomycin solution (Life Technologies, Cat. No.15140-106) and set at 3×10^6 cells/ml after cell counting by means of trypan blue staining. In each case, 100 μl of cell suspension solution was dispersed on 96-hole flat-bottomed cell culture plates (Costar, Product No. 3599). In each case, 100 μl of 3×-concentrated stimulation solution (3 μg/ml of LPS of E. coli Serotype 0127:B8; Sigma, Cat. No. L-4516 and 300 ng/ml of IFNγ 1b, Imukin, Boehringer Ingelheim) was added to it. The substances according to the invention were added at various concentrations as 3×-concentrated substance solution (100 μl/well). The stimulation of the cells was carried out at 37° C. and 5% CO2 over a period of 24 hours. Then, the cell culture supernatant was harvested, and the concentrations of TNFα and IL-12 HD p70 were determined by means of commercially available ELISA Kits of the BioSource International Company (TNF-α EASIA, Cat. No. KAC 1752) and R & D Systems (Quantikine1υ HS IL-12, Cat. No. HS 120).
# (§5) The calculated IC50 value corresponds to the concentration of test substance that is required to reach a 50% inhibition of the maximum TNFα- or interleukin 12 HD p70 production.
# TNFα [2] = assay: Inhibition of TNFα production of peripheral mononuclear blood cells stimulated with LPS and IFNγ; assay type: cell-based, human; settings: 24 hours; for IC50: Homo sapiens, read-out: Inhibition of TNF-alpha Secretion after LPS & IFNg Stimulation IC50
# Experimental: as §3, §4, §5
# IL-10 = assay: Induction of IL-10 production of peripheral mononuclear blood cells; assay type: cell-based, human; settings: 24 hours; for EC50: Homo sapiens, PHA, read-out: Induction of the IL-10 Secretion after PHA Stimulation EC50
# Experimental: The induction of IL-10 production is visualized by, for example, measuring IL-10 in peripheral mononuclear blood cells that are stimulated in phytohemagglutinin (PHA) or lipopolysaccharide (LPS).
# To isolate peripheral mononuclear blood cells, human whole blood was used (drawing of blood via Na-Citrate S-monovettes “Coagulation 9 NC/10 ml”/Sarstedt). The build-up of the lymphocytes and monocytes was accomplished with the aid of the density gradient centrifuging: For this purpose, 15 ml of Histopaque-1077 (Sigma, Cat. No. H8880) in 50 ml LEUCOSEP tubes (Greiner, Cat. No. 227290) is introduced and forced downward by centrifuging for 30 seconds at 250 g by the frits that are contained in the tubes. Then, 20 ml of whole blood is added and centrifuged for 15 minutes at 800 g and at room temperature. After centrifuging, the supernatant (plasma and thrombocytes) is pipetted off and discarded, and the subjacent cell layer (lymphocytes and monocytes) in 50 ml centrifuging tubes (Falcon) is transferred and then washed 3× in culture medium VLE RPMI 1640 (Seromed, No. FG1415) (centrifuging in each case for 10 minutes at 250 g, room temperature). Finally, the cell pellet is resuspended in culture medium VLE RPMI 1640 (Seromed, No. FG1415), 10% FCS (Life Technologies, Cat. No. 16000-044, low endotoxin, heat-inactivated for 1 hour, 56° C.), 50 μg/ml of penicillin-streptomycin solution (Life Technologies, Cat. No. 15140-106) and set at 3×10^6 cells/ml after cell counting by means of trypan blue staining. In each case, 100 μl of cell suspension solution was dispersed on 96-hole flat-bottomed cell culture plates (Costar, Product No. 3599). In each case, 100 μl of 3×-concentrated stimulation solution (3 μg/ml of LPS of E. coli Serotype 0127:B8; Sigma, Cat. No. L-4516 or 300 μg/ml of PHA-L, Biochrom KG, Cat. No. M5030) was added to it. The substances according to the invention were added at various concentrations as 3×-concentrated substance solution (100 μl/well). The stimulation of the cells was carried out at 37° C. and 5% CO2 over a period of 24 hours. Then, the cell culture supernatant was harvested, and IL-10 was determined quantitatively. The IL-10 concentration was determined by means of a commercially available ELISA Kit of the BioSource International Company (human IL-10, Cat. No. KHC0101C). The calculated EC50 value corresponds to the concentration of test substance that is required to increase the IL-10 secretion by 50% of the maximum increase.
IC50 (interleukin 12) [nM],IC50 (TNFα [1]) [nM],IC50 (IFNγ) [nM],IC50 (microglia) [nM],IC50 (IL-12 HD p70) [nM],IC50 (TNFα [2]) [nM],EC50 (IL-10) [nM],Structure (SMILES),Inhibition of IL-12HD Secretion after LPS & IFNg Stimulation Effectiveness (IL-12 HD p70) [%],Inhibition of TNF-alpha Secretion after LPS & IFNg Stimulation Effectiveness (TNFα [2]) [%],Induction of the IL-10 Secretion after PHA Stimulation Effectiveness (IL-10) [%]
2200,3000,1300,750,92,650,> 1000,"Cc1ccc(-n2c(-c3ccccc3)nc3ccc(OCCCCCC(=O)OC(C)C)cc32)cc1 [Substance 1, 6-[[1-(4-Methylphenyl)-2-phenyl-1H-benzimidazol-6-yl]oxy]hexanoic acid-isopropyl ester]",81,65,245
< 300,150,110,160,30,120,180,"Cc1ccc(-n2c(-c3ccccc3)nc3ccc(OCCCCCC(=O)O)cc32)cc1 [Substance 2, 6-[[1-(4-Methylphenyl)-2-phenyl-1H-benzimidazol-6-yl]oxy]hexanoic acid]",93,83,283
